Results as given in PMC9820430, “New Affordable Methods for Large-Scale Isolation of Major Olive Secoiridoids and Systematic Comparative Study of Their Antiproliferative/Cytotoxic Effect on Multiple Cancer Cell Lines of Different Cancer Origins” (International Journal of Molecular Sciences, 2022).
Read-outs that look alike come from different tables or passages of the source.

Key:
Test in all cases: ATP-based luminescence cell viability assay (ViaLight), 72 h
Set-up in all cases: species or system human
ME-180 = details: 72 h treatment, read-out: EC50 Values of Olive Oil Polyphenols
Protocol: (§1) The antiproliferative/cytotoxic effects of the selected OOPs on each cell line were assessed by measuring the cellular ATP levels after 72 h treatments using an ATP-based luminescence assay. This assay, initially developed as a tumor chemosensitivity assay, has shown considerable promise as a general in vitro toxicity assay due to its high sensitivity that allows the detection of a small number of cells. Consequently, it can be applied to both cancer cell lines and primary tissue cells. […] The EC50 values were calculated by nonlinear regression (curve fit) using a sigmoidal dose–response equation (Figure 2A and Figure S2).
(§2) The OOPs tested in this study were first dissolved in an appropriate DMSO volume such as to prepare a final stock solution of 50 mM, which was further used to prepare various compound concentrations in DMSO-based solutions. The final DMSO concentration in the cell culture was maintained constant in all treated groups of any given experiment and never exceeded the value of 0.2% (v/v). For the treatment experiments, cells were plated in 96-well culture plates, in 100 μL of complete medium at a seeding density of 5000–10,000 cells/well—depending on cells’ size and doubling time—and were allowed to adhere overnight (~16 h). The next day, 150 μL of complete medium was added to each well and the cells were treated with various concentrations of OOPs. Each concentration was tested in triplicate and was repeated 2–3 times. To prepare the final concentration solutions, 0.5 μL of a 500× stock of each tested compound in DMSO was added directly into each well in a final volume of 250 μL culture medium and was gently mixed by pipetting. Control wells were prepared under the same experimental conditions by adding only DMSO at a final concentration of 0.2% (v/v). Compounds were not renewed during the entire period of cell exposure. All cells were cultured at 37 °C in a 5% (v/v) CO2 for 24, 48 or 72 h.
(§3) Briefly, after the treatment with OOPs, the adapted medium was removed from the dish wells and the cells were washed twice with medium without FBS. Then, the C-lysis (LT27-076) was diluted in PBS (1:2) and a volume of 50 μL was added to each well. Cells were incubated with C-lysis for at least 10 min. Finally, an equal volume of lysed cells from each well and ATP monitoring reagent (AMR; LT27-212) was transferred to the wells of a white-walled illuminometer plate (Greiner bio-one; 655074). Cell viability was quantified by measuring luminescence using a multi-mode microplate reader Safire^2 Tecan (software Magellan V6.00 STD.2PC WIN.20000/XP).

MDA-MB 231 = details: for Selectivity index SI (MCF 10A): EC50 MCF 10A / EC50 MDA-MB 231; for EC50: MDA-MB 231, 72 h treatment, read-out: EC50 Values of Olive Oil Polyphenols
Protocol: as §1, §2, §3

H1299 = details: for Selectivity index SI (MRC-5): EC50 MRC-5 / EC50 H1299; for EC50: H1299, 72 h treatment, read-out: EC50 Values of Olive Oil Polyphenols
Protocol: as §1, §2, §3

HaCaT = HaCaT (immortal keratinocytes), 72 h treatment, read-out: EC50 Values of Olive Oil Polyphenols
Protocol: as §1, §2, §3

A2058 = details: for EC50: A2058, 72 h treatment, read-out: EC50 Values of Olive Oil Polyphenols; for Selectivity index SI (HaCaT): EC50 HaCaT / EC50 A2058; for Selectivity index SI (NHDF): EC50 NHDF / EC50 A2058
Protocol: as §1, §2, §3

AGS = details: 72 h treatment, read-out: EC50 Values of Olive Oil Polyphenols
Protocol: as §1, §2, §3

MKN-45 = details: 72 h treatment, read-out: EC50 Values of Olive Oil Polyphenols
Protocol: as §1, §2, §3

SK-MEL-28 = details: for Selectivity index SI (HaCaT): EC50 HaCaT / EC50 SK-MEL-28; for Selectivity index SI (NHDF): EC50 NHDF / EC50 SK-MEL-28; for EC50: SK-MEL-28, 72 h treatment, read-out: EC50 Values of Olive Oil Polyphenols
Protocol: as §1, §2, §3

SK-BR-3 = details: for Selectivity index SI (MCF 10A): EC50 MCF 10A / EC50 SK-BR-3; for EC50: SK-BR-3, 72 h treatment, read-out: EC50 Values of Olive Oil Polyphenols
Protocol: as §1, §2, §3

MCF 10A = MCF 10A (non-tumorigenic epithelial), 72 h treatment, read-out: EC50 Values of Olive Oil Polyphenols
Protocol: as §1, §2, §3

Caco-2 = details: 72 h treatment, read-out: EC50 Values of Olive Oil Polyphenols
Protocol: as §1, §2, §3

PANC-1 = details: 72 h treatment, read-out: EC50 Values of Olive Oil Polyphenols
Protocol: as §1, §2, §3

HT-29 = details: 72 h treatment, read-out: EC50 Values of Olive Oil Polyphenols
Protocol: as §1, §2, §3

Huh-7 = details: 72 h treatment, read-out: EC50 Values of Olive Oil Polyphenols
Protocol: as §1, §2, §3

HepG-2 = details: 72 h treatment, read-out: EC50 Values of Olive Oil Polyphenols
Protocol: as §1, §2, §3

Hela = details: 72 h treatment, read-out: EC50 Values of Olive Oil Polyphenols
Protocol: as §1, §2, §3

MRC-5 = MRC-5 (non cancer, lung), 72 h treatment, read-out: EC50 Values of Olive Oil Polyphenols
Protocol: as §1, §2, §3

MCF-7 = details: 72 h treatment, read-out: EC50 Values of Olive Oil Polyphenols
Protocol: as §1, §2, §3

H1437 = details: for Selectivity index SI (MRC-5): EC50 MRC-5 / EC50 H1437; for EC50: H1437, 72 h treatment, read-out: EC50 Values of Olive Oil Polyphenols
Protocol: as §1, §2, §3

Row | Compound | Selectivity index SI (MCF 10A) (MDA-MB 231) | Selectivity index SI (MRC-5) (H1299) | Selectivity index SI (HaCaT) (A2058) | Selectivity index SI (NHDF) (A2058) | Selectivity index SI (HaCaT) (SK-MEL-28) | Selectivity index SI (NHDF) (SK-MEL-28) | Selectivity index SI (MCF 10A) (SK-BR-3) | Selectivity index SI (MRC-5) (H1437) | EC50 (ME-180; Homo sapiens, ME-180, 72 h) | EC50 (MDA-MB 231; Homo sapiens, MDA-MB-231, 72 h) | EC50 (HaCaT; Homo sapiens, HaCaT, 72 h) | EC50 (A2058; Homo sapiens, A2058, 72 h) | EC50 (AGS; Homo sapiens, 72 h) | EC50 (MKN-45; Homo sapiens, MKN-45, 72 h) | EC50 (SK-MEL-28; Homo sapiens, SK-MEL-28, 72 h) | EC50 (SK-BR-3; Homo sapiens, SK-BR-3, 72 h) | EC50 (MCF 10A; Homo sapiens) | EC50 (Caco-2; Homo sapiens, Caco-2, 72 h) | EC50 (PANC-1; Homo sapiens, PANC-1, 72 h) | EC50 (HT-29; Homo sapiens, HT-29, 72 h) | further results
1 | ligstroside aglycone [4a,b] | 1.9 | 0.2 | 0.9 | 0.7 | 2.5 | 2.1 | 2.6 | 1.1 |  |  |  |  |  |  |  |  |  |  |  |  | EC50 (ME-180): 51.1 ± 2.2 µM; EC50 (MDA-MB 231): 31.6 ± 2.7 µM; EC50 (H1299): 83.3 ± 1.9 µM; EC50 (HaCaT): 55.6 ± 1 µM; EC50 (A2058): 63.6 ± 1.6 µM; EC50 (AGS): 48.5 ± 2.5 µM; EC50 (MKN-45): 24 ± 1.2 µM; EC50 (SK-MEL-28): 22.2 ± 1.2 µM; EC50 (SK-BR-3): 21.5 ± 2.5 µM; EC50 (MCF 10A): 55.8 ± 2.7 µM; EC50 (Caco-2): 24.4 ± 1.6 µM; EC50 (PANC-1): 45.7 ± 1.4 µM; EC50 (HT-29): 98.2 ± 8.4 µM; EC50 (Huh-7): 36 ± 0.9 µM; EC50 (HepG-2): 45.8 ± 3.4 µM; EC50 (Hela): 47.6 ± 1.8 µM; EC50 (MRC-5): 13.2 ± 0.9 µM; EC50 (MCF-7): 61.8 ± 1.2 µM; EC50 (H1437): 11.6 ± 1.1 µM
2 | COC(=O)C1=COC(C)[C@@H](C=O)[C@@H]1CC(=O)OCCc1ccc(O)c(O)c1 (mixture of isomers) [3a,b, oleuropein aglycone] | 0.4 | 0.4 | 1.0 | 1.1 | 2.4 | 2.8 | 0.5 | 0.7 | 25.5 ± 0.5 µM | 24.5 µM | 36.6 µM | 37.2 ± 0.8 µM | 35.9 ± 1.4 µM | 16.4 ± 1.6 µM | 22.2 µM | 17.7 ± 1.4 µM | 9.5 ± 0.4 µM | 24.5 ± 0.9 µM | 19.1 ± 0.6 µM | 50.1 ± 1.5 µM | EC50 (MDA-MB 231): 25.4 ± 0.8 µM; EC50 (H1299; Homo sapiens, NCI-H1299): 24.1 ± 0.9 µM; EC50 (SK-MEL-28): 15.1 ± 0.9 µM; EC50 (Huh-7; Homo sapiens, Huh-7, 72 h): 13 ± 0.1 µM; EC50 (HepG-2; Homo sapiens, HepG2, 72 h): 17.7 ± 0.5 µM; EC50 (Hela; Homo sapiens, HeLa, 72 h): 27.6 ± 0.3 µM; EC50 (MRC-5; Homo sapiens, MRC5): 8.6 ± 0.4 µM; EC50 (MCF-7; Homo sapiens, MCF7, 72 h): 32.2 ± 1.1 µM; EC50 (H1437; Homo sapiens, NCI-H1437, 72 h): 11.9 ± 0.6 µM
3 | C/C=C(/C=O)[C@@H](CC=O)CC(=O)OCCc1ccc(O)c(O)c1 [compound 2, oleacein] | 0.7 | 0.1 | 0.9 | 0.9 | 1.6 | 1.5 | 0.5 | 0.1 | 25.2 ± 0.2 µM | 37.7 ± 2.2 µM | > 50 µM | 55.7 ± 3.4 µM | 46.2 ± 2.3 µM | 25 ± 2.1 µM | 33.4 ± 2.4 µM | 45.6 ± 2.2 µM | 24.7 ± 2.7 µM | > 100 µM | 30.9 ± 0.2 µM | > 100 µM | EC50 (H1299; Homo sapiens, NCI-H1299): 61.7 ± 1.3 µM; EC50 (HaCaT): 51.8 ± 4.2 µM; EC50 (Huh-7; Homo sapiens, Huh-7, 72 h): 49.6 ± 0.5 µM; EC50 (HepG-2; Homo sapiens, HepG2, 72 h): 82.8 ± 0.7 µM; EC50 (Hela; Homo sapiens, HeLa, 72 h): 46.3 ± 4.9 µM; EC50 (MRC-5; Homo sapiens, MRC5): 7 ± 0.9 µM; EC50 (MCF-7; Homo sapiens, MCF7, 72 h): > 100 µM; EC50 (H1437; Homo sapiens, NCI-H1437, 72 h): 74.6 ± 2.1 µM
4 | C/C=C(/C=O)[C@@H](CC=O)CC(=O)OCCc1ccc(O)cc1 [compound 1, oleocanthal] |  |  |  |  |  |  |  |  | 9.1 ± 0.3 µM | 10.4 ± 0.8 µM | 19.3 ± 0.3 µM | 18.4 ± 0.4 µM | 18.3 ± 1 µM | 10.2 ± 0.4 µM | 10.4 ± 1.1 µM | 13 ± 0.6 µM | 7 ± 0.3 µM | 33.4 µM | 14.9 ± 0.9 µM | 26.3 ± 2 µM | EC50 (Caco-2): 34.3 ± 4.1 µM; EC50 (Huh-7; Homo sapiens, Huh-7, 72 h): 20.2 ± 1.5 µM; EC50 (HepG-2; Homo sapiens, HepG2, 72 h): 40 ± 5.3 µM; EC50 (Hela; Homo sapiens, HeLa, 72 h): 44.6 ± 0.4 µM; EC50 (MRC-5; Homo sapiens, MRC5): 2 ± 0.1 µM; EC50 (MCF-7): 24.6 ± 2.6 µM; EC50 (MCF-7; Homo sapiens, MCF7, 72 h): > 25 µM; EC50 (H1437; Homo sapiens, NCI-H1437, 72 h): 26.5 ± 1.1 µM
